The text below walks through data of patent publication US12428406B2 (PMV Pharmaceuticals, Inc., priority 2019, dated 2025).

SMILES strings stand for the structures.

In the test the target is T1, p53 Y220C (Homo sapiens, UniProt P04637, Y220C).
T1 construct: The recombinant protein was a truncation mutant containing only amino acids 94-312 of p53; made in house; host or cells: E. coli
T1 sequence (P04637 94-312, change not shown): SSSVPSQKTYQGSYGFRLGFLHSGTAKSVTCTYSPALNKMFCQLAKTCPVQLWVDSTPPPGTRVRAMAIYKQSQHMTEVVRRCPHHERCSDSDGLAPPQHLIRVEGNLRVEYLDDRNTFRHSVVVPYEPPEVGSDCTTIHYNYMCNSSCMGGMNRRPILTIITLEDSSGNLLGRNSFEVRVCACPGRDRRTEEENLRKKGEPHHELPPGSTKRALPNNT
The experiment in a line: In vitro DNA binding activity assay (HTRF / TR-FRET): stabilization of p53 Y220C and increase of its DNA binding activity. Conditions: recombinant His-tagged p53 Y220C DNA binding domain (aa 94-312), biotin-labeled consensus DNA, incubated at 27° C. or 29° C. for 60 min. The test is classed as biochemical. How it is done:
The ability of a compound of the invention to stabilize p53 Y220C and increase the DNA binding activity of p53 Y220C was measured by a homogeneous time-resolved fluorescence (HTRF) assay. Recombinant His-tagged p53 Y220C used in the HTRF assay was expressed in the bacterium E. coli.
The binding of the recombinant His-tagged p53 Y220C protein and the biotin-labeled consensus DNA was measured using fluorescence resonance energy transfer (FRET). For the FRET assay, the binding between the p53 mutant and the DNA sequence was measured by detecting the fluorescence of the interaction between an anti-His antibody conjugated to allophycocyanin (APC) and streptavidin conjugated to europium to detect the biotin-labeled DNA.
The test compounds were prepared as 4.5 mM stock solutions in dimethyl sulfoxide (DMSO). The compounds of the disclosure were used to test the stabilization of p53 Y220C and increase in DNA binding activity of p53 Y220C. The stock solutions were then serially diluted 3-fold in DMSO, and 1.2 μL of the diluted solutions was added to each well of a 384-well polypropylene black plate.
The test and control samples were spun at 1200 rpm for 1 minute and incubated at room temperature for 15 minutes. […] The plates were spun at 1200 rpm for 1 minute and incubated at room temperature for 20 minutes. The assay signals were monitored by reading excitation at 340 nm, and emission fluorescence at 615 nm and 665 nm on a plate reader.
The percentage of activation of protein DNA binding in the presence of a compound of the invention compared to the absence of the compound was denoted by a SC150 value, which indicated the concentration of the compound required to increase the DNA binding activity by 50%. The SC150 values were calculated using either Prism™ or ActivityBase™.
In the case of `CCS(=O)(=O)c1ccc(NCC#Cc2cc3c(N[C@@H]4CCN(C(=O)OC(C)(C)C)C[C@@H]4F)cccc3n2CC(F)(F)F)c(OC)c1` [Compound 922A, tert-butyl (3S,4R)-4-{[2-(3-{[4-(ethanesulfonyl)-2-methoxyphenyl]amino}prop-1-yn-1-yl)-1-(2,2,2-trifluoroethyl)-1H-indol-4-yl]amino}-3-fluoropiperidine-1-carboxylate], the “SC150 (concentration of the compound required to increase the DNA binding activity by 50%)” value was “++ (++ = 0.05 μM ≤ SC150 < 0.1 μM)”. As for `COc1cc(S(N)(=O)=O)ccc1NCC#Cc1cc2c(N[C@H]3CC[C@H](N4CCC5(CCOC5)CC4)CC3)cccc2n1CC(F)(F)F` [Compound 411A, 3-methoxy-4-{[3-(4-{[(1R,4R)-4-{2-oxa-8-azaspiro[4.5]decan-8-yl}cyclohexyl]amino}-1-(2,2,2-trifluoroethyl)-1H-indol-2-yl)prop-2-yn-1-yl]amino}benzene-1-sulfonamide], the “SC150 (concentration of the compound required to increase the DNA binding activity by 50%)” value is “+ (+ = 0 μM ≤ SC150 < 0.05 μM)”. The result for `CNC(=O)c1ccc(NCC#Cc2cc3c(NC4CCN(CC(O)COC)CC4)cccc3n2CC(F)(F)F)c(OCF)c1` (centres unmarked) [Compound 663A, 3-(fluoromethoxy)-4-{[3-(4-{[1-(2-hydroxy-3-methoxypropyl)piperidin-4-yl]amino}-1-(2,2,2-trifluoroethyl)-1H-indol-2-yl)prop-2-yn-1-yl]amino}-N-methylbenzamide] reads “+ (+ = 0 μM ≤ SC150 < 0.05 μM)”.

In the case of `COc1cc(S(C)(=O)=O)ccc1NCC#Cc1cc2c(N[C@H]3CCN(C)C[C@@H]3O)cccc2n1CC(F)(F)F` (racemic) [Compound 767A, rac-(3R,4R)-4-[(2-{3-[(4-methanesulfonyl-2-methoxyphenyl)amino]prop-1-yn-1-yl}-1-(2,2,2-trifluoroethyl)-1H-indol-4-yl)amino]-1-methylpiperidin-3-ol], the “SC150 (concentration of the compound required to increase the DNA binding activity by 50%)” value was “+ (+ = 0 μM ≤ SC150 < 0.05 μM)”. For `CNc1cc(S(C)(=O)=O)ccc1OCC#Cc1cc2c(N[C@H]3CC[C@H](N(C)C)CC3)cccc2n1CC(F)(F)F` [Compound 109A, (1R,4R)-N^4-(2-{3-[4-methanesulfonyl-2-(methylamino)phenoxy]prop-1-yn-1-yl}-1-(2,2,2-trifluoroethyl)-1H-indol-4-yl)-N^1,N^1-dimethylcyclohexane-1,4-diamine], the “SC150 (concentration of the compound required to increase the DNA binding activity by 50%)” value is “+ (+ = 0 μM ≤ SC150 < 0.05 μM)”.

Consider `CNC(=O)c1ccc(NCC#Cc2cc3c(N[C@H]4CC[C@@H](N(C)C)CC4)cccc3n2CC(F)(F)F)c(OC)c1` [Compound 75A, 3-methoxy-N-methyl-4-{[3-(4-{[(1S,4S)-4-(dimethylamino)cyclohexyl]amino}-1-(2,2,2-trifluoroethyl)-1H-indol-2-yl)prop-2-yn-1-yl]amino}benzamide], for which the “SC150 (concentration of the compound required to increase the DNA binding activity by 50%)” value is “++ (++ = 0.05 μM ≤ SC150 < 0.1 μM)”. For `COc1cc(C(C)(C)C#N)ncc1NCC#Cc1cc2c(NC3CCOCC3)cccc2n1CC(F)(F)F` [Compound 995A, 2-{4-methoxy-5-[(3-{4-[(oxan-4-yl)amino]-1-(2,2,2-trifluoroethyl)-1H-indol-2-yl}prop-2-yn-1-yl)amino]pyridin-2-yl}-2-methylpropanenitrile], the “SC150 (concentration of the compound required to increase the DNA binding activity by 50%)” value was “+ (+ = 0 μM ≤ SC150 < 0.05 μM)”. For `COc1cc(S(C)(=O)=O)ccc1NCC#Cc1cc2c(N[C@H]3CCC[C@@H](N)C3)cccc2n1CC(F)(F)F` (racemic) [Compound 27A, rac-(1R,3S)-N^1-(2-{3-[(4-methanesulfonyl-2-methoxyphenyl)amino]prop-1-yn-1-yl}-1-(2,2,2-trifluoroethyl)-1H-indol-4-yl)cyclohexane-1,3-diamine] the value was “+ (+ = 0 μM ≤ SC150 < 0.05 μM)”; for `COCC(O)CN1CCC(Nc2cccc3c2cc(C#CCNc2ccc(S(C)(=O)=O)cc2OC(F)F)n3CC(F)(F)F)CC1` (centres unmarked) [Compound 668A, 1-(4-{[2-(3-{[2-(difluoromethoxy)-4-methanesulfonylphenyl]amino}prop-1-yn-1-yl)-1-(2,2,2-trifluoroethyl)-1H-indol-4-yl]amino}piperidin-1-yl)-3-methoxypropan-2-ol], “+ (+ = 0 μM ≤ SC150 < 0.05 μM)”; for `CNC(=O)c1ccc(NCC#Cc2cc3c(N[C@H]4CC[C@@H](N)CC4)cccc3n2CC(F)(F)F)c(OC)c1` [Compound 25A, 3-methoxy-N-methyl-4-{[3-(4-{[(1S,4S)-4-aminocyclohexyl]amino}-1-(2,2,2-trifluoroethyl)-1H-indol-2-yl)prop-2-yn-1-yl]amino}benzamide], “+ (+ = 0 μM ≤ SC150 < 0.05 μM)”. On to `CNC(=O)c1ccc(NCC#Cc2cc3c(NC4CCN(C[C@H](CO)OC)CC4)cccc3n2CC(F)(F)F)c(OC)c1` [Compound 649A, 4-({3-[4-({1-[(2R)-3-hydroxy-2-methoxypropyl]piperidin-4-yl}amino)-1-(2,2,2-trifluoroethyl)-1H-indol-2-yl]prop-2-yn-1-yl}amino)-3-methoxy-N-methylbenzamide], for which the “SC150 (concentration of the compound required to increase the DNA binding activity by 50%)” value was “+ (+ = 0 μM ≤ SC150 < 0.05 μM)”. Take `CCC(=O)N(C)S(=O)(=O)c1ccc(NCC#Cc2cc3c(NC4CCN(CC(O)COC)CC4)cccc3n2CC(F)(F)F)c(OC)c1` (centres unmarked) [Compound 624A, N-(4-{[3-(4-{[1-(2-hydroxy-3-methoxypropyl)piperidin-4-yl]amino}-1-(2,2,2-trifluoroethyl)-1H-indol-2-yl)prop-2-yn-1-yl]amino}-3-methoxybenzenesulfonyl)-N-methylpropanamide]: the “SC150 (concentration of the compound required to increase the DNA binding activity by 50%)” value is “+ (+ = 0 μM ≤ SC150 < 0.05 μM)”. For the compound `COc1cc(S(C)(=O)=O)ccc1NCC#Cc1cc2c(NC3CCN(C(=O)C(C)C)CC3)cccc2n1CC(F)(F)F` [Compound 752A], the “SC150 (concentration of the compound required to increase the DNA binding activity by 50%)” value is recorded as “+ (+ = 0 μM ≤ SC150 < 0.05 μM)”. In the case of `COc1cc(C(=O)O)ccc1NCC#Cc1cc2c(N[C@H]3CCN(C(C)(C)C)C[C@H]3F)cccc2n1CC(F)(F)F` [Compound 1071A, 4-{[3-(4-{[(3R,4S)-1-tert-butyl-3-fluoropiperidin-4-yl]amino}-1-(2,2,2-trifluoroethyl)-1H-indol-2-yl)prop-2-yn-1-yl]amino}-3-methoxybenzoic acid], the “SC150 (concentration of the compound required to increase the DNA binding activity by 50%)” value is given as “+ (+ = 0 μM ≤ SC150 < 0.05 μM)”. For `COc1cc(S(=O)(=O)CCO)ccc1NCC#Cc1cc2c(N[C@@H]3CCN(C)C[C@@H]3F)cccc2n1CC(F)(F)F` [Compound 939A, 2-(4-{[3-(4-{[(3S,4R)-3-fluoro-1-methylpiperidin-4-yl]amino}-1-(2,2,2-trifluoroethyl)-1H-indol-2-yl)prop-2-yn-1-yl]amino}-3-methoxybenzenesulfonyl)ethan-1-ol], the “SC150 (concentration of the compound required to increase the DNA binding activity by 50%)” value was “+ (+ = 0 μM ≤ SC150 < 0.05 μM)”. Consider `CS(=O)(=O)c1ccc(NCC#Cc2cc3c(N[C@H]4CC[C@H](N5CC6(CCOCC6)C5)CC4)cccc3n2CC(F)(F)F)c(OCF)c1` [Compound 324A, N-((1R,4R)-4-(7-oxa-2-azaspiro[3.5]nonan-2-yl)cyclohexyl)-2-(3-((2-(fluoromethoxy)-4-(methylsulfonyl)phenyl)amino)prop-1-yn-1-yl)-1-(2,2,2-trifluoroethyl)-1H-indol-4-amine], for which the “SC150 (concentration of the compound required to increase the DNA binding activity by 50%)” value is recorded as “+ (+ = 0 μM ≤ SC150 < 0.05 μM)”.

On to `COc1cc(S(N)(=O)=O)ccc1NCC#Cc1cc2c(NC3CCN(C(=O)C(C)O)CC3)cccc2n1CC(F)(F)F` (centres unmarked) [Compound 745A], for which the “SC150 (concentration of the compound required to increase the DNA binding activity by 50%)” value is recorded as “+ (+ = 0 μM ≤ SC150 < 0.05 μM)”.

Regarding `COc1cc(S(N)(=O)=O)ccc1NCC#Cc1cc2c(N[C@H]3CCN(C)C[C@H]3F)cccc2n1CC(F)(F)F` [Compound 790A, 4-{[3-(4-{[(3R,4S)-3-fluoro-1-methylpiperidin-4-yl]amino}-1-(2,2,2-trifluoroethyl)-1H-indol-2-yl)prop-2-yn-1-yl]amino}-3-methoxybenzene-1-sulfonamide], the “SC150 (concentration of the compound required to increase the DNA binding activity by 50%)” value is given as “+ (+ = 0 μM ≤ SC150 < 0.05 μM)”. Consider `COc1cc(S(C)(=O)=O)ccc1NCC#Cc1cc2c(N[C@H]3CC[C@H](N4CCOCC4)CC3)cccc2n1CC(F)F` [Compound 180A, 1-(2,2-difluoroethyl)-2-{3-[(4-methane-sulfonyl-2-methoxy-phenyl)amino]prop-1-yn-1-yl}-N-[(1R,4R)-4-(morpholin-4-yl)cyclo-hexyl]-1H-indol-4-amine], for which the “SC150 (concentration of the compound required to increase the DNA binding activity by 50%)” value was “+ (+ = 0 μM ≤ SC150 < 0.05 μM)”. The result for `COc1cc(S(=O)(=O)N(C)C)ccc1NCC#Cc1cc2c(N[C@H]3CC[C@H](N(C)C)CC3)cccc2n1CC(F)(F)F` [Compound 127A, 3-methoxy-N,N-dimethyl-4-{[3-(4-{[(1R,4R)-4-(dimethylamino)cyclohexyl]amino}-1-(2,2,2-trifluoroethyl)-1H-indol-2-yl)prop-2-yn-1-yl]amino}benzene-1-sulfonamide] reads “+ (+ = 0 μM ≤ SC150 < 0.05 μM)”.
